{"source": "patent US6689773B2", "about": "“Uracil substituted phenyl sulfamoyl carboxamides” (BASF Aktiengesellschaft, priority 2000, dated 2004)", "assay_type_in_all_cases": "in vivo", "key": {"[1]": {"tested_on": "XANST, Cocklebur, Xanthium strumariam", "test": "Preemergence herbicidal evaluation (Example 148)", "settings": "rating scale 0-9, two to four weeks after treatment", "protocol": "(§1) The scale is based upon a visual observation of plant stand, vigor, malformation, size, chlorosis and overall plant appearance as compared with a control.\n(§2) The herbicidal activity of the compounds of the present invention was evaluated by the following tests wherein the seeds of a variety of monocotyledonous and dicotyledonous plants were separately mixed with potting soil and planted on top of approximately one inch of soil in separate pint cups. After planting, the cups were sprayed with the selected aqueous acetone solution containing test compound in sufficient quantity to provide the equivalent of about 0.125 to 0.250 kg per hectare of test compound per cup. The treated cups were then placed on greenhouse benches, watered and cared for in accordance with conventional greenhouse procedures. From two to four weeks after treatment, the tests were terminated and each cup was examined and rated according to the rating system provided in Example 94. When more than one test was performed for a given compound, the data were averaged."}, "[2]": {"tested_on": "SETVI, Green foxtail, Setaria viridis, (L.)Beau", "test": "Preemergence herbicidal evaluation (Example 148)", "settings": "rating scale 0-9, two to four weeks after treatment", "protocol": "as §1, §2"}, "[3]": {"tested_on": "AMBEL, Ragweed, Common, Ambrosia artemiisifolia, L.", "test": "Preemergence herbicidal evaluation (Example 148)", "settings": "rating scale 0-9, two to four weeks after treatment", "protocol": "as §1, §2"}, "[4]": {"tested_on": "ZEAMX, Field corn, Zea mays L.", "test": "Preemergence herbicidal evaluation (Example 148)", "settings": "rating scale 0-9, two to four weeks after treatment", "protocol": "as §1, §2"}, "[5]": {"tested_on": "ALOMY, Blackgrass, Alopecurus myosuroides", "test": "Preemergence herbicidal evaluation (Example 148)", "settings": "rating scale 0-9, two to four weeks after treatment", "protocol": "as §1, §2"}, "[6]": {"tested_on": "IPOHE, Morningglory, Ivyleaf, Ipomoea hederacea, (L)Jacq.", "test": "Preemergence herbicidal evaluation (Example 148)", "settings": "rating scale 0-9, two to four weeks after treatment", "protocol": "as §1, §2"}, "[7]": {"tested_on": "ABUTH, Velvetleaf, Abutilon theophrasti, Medic.", "test": "Preemergence herbicidal evaluation (Example 148)", "settings": "rating scale 0-9, two to four weeks after treatment", "protocol": "as §1, §2"}, "[8]": {"tested_on": "GLXMA, Soybean, Glycine max, (L.) Merr.", "test": "Preemergence herbicidal evaluation (Example 148)", "settings": "rating scale 0-9, two to four weeks after treatment", "protocol": "as §1, §2"}, "[9]": {"tested_on": "TRZAW, Winter wheat, Tritium Aestivum, L. (Winter)", "test": "Preemergence herbicidal evaluation (Example 148)", "settings": "rating scale 0-9, two to four weeks after treatment", "protocol": "as §1, §2"}, "[10]": {"tested_on": "DIGSA, Crabgrass, (Hairy) L, Digitaria sanguinalis, (L)Scop", "test": "Preemergence herbicidal evaluation (Example 148)", "settings": "rating scale 0-9, two to four weeks after treatment", "protocol": "as §1, §2"}, "[11]": {"tested_on": "ECHCG, Barnyardgrass, Echinochloa crusgalli, (L.)Beau", "test": "Preemergence herbicidal evaluation (Example 148)", "settings": "rating scale 0-9, two to four weeks after treatment", "protocol": "as §1, §2"}, "[12]": {"tested_on": "CHEAL, Lambsquarters, Chenopodium album, L. Common", "test": "Preemergence herbicidal evaluation (Example 148)", "settings": "rating scale 0-9, two to four weeks after treatment", "protocol": "as §1, §2"}, "[13]": {"tested_on": "SETVI, Green foxtail, Setaria viridis, (L.)Beau", "test": "Postemergence herbicidal evaluation (Example 147)", "settings": "rating scale 0-9, two to three weeks after treatment", "protocol": "(§3) Seedling plants were grown in jiffy flats for about two weeks. The test compounds were dispersed in 80/20 acetone/water mixtures containing 1.0% SUN-IT®II, a methylated seed oil, in sufficient quantities to provide the equivalent of about 0.016 to 0.032 kg per hectare of active compound when applied to the plants through a spray nozzle operating at 40 psi for a predetermined time. After spraying, the plants were placed on greenhouse benches and were cared for in accordance with conventional greenhouse procedures. Approximately two to three weeks after treatment, the seedling plants were examined and rated according to the rating scale (0-9) set forth below. Where more than one test is involved for a given compound, the data are averaged. [table] The scale is based upon a visual observation of plant stand, vigor, malformation, size, chlorosis and overall plant appearance as compared with a control. Plant species employed in these evaluations are reported by header abbreviation, common name and scientific name. [table]"}, "[14]": {"tested_on": "AMBEL, Ragweed, Common, Ambrosia artemiisifolia, L.", "test": "Postemergence herbicidal evaluation (Example 147)", "settings": "rating scale 0-9, two to three weeks after treatment", "protocol": "as §3"}, "[15]": {"tested_on": "ZEAMX, Field corn, Zea mays L.", "test": "Postemergence herbicidal evaluation (Example 147)", "settings": "rating scale 0-9, two to three weeks after treatment", "protocol": "as §3"}, "[16]": {"tested_on": "ALOMY, Blackgrass, Alopecurus myosuroides", "test": "Postemergence herbicidal evaluation (Example 147)", "settings": "rating scale 0-9, two to three weeks after treatment", "protocol": "as §3"}, "[17]": {"tested_on": "IPOHE, Morningglory, Ivyleaf, Ipomoea hederacea, (L)Jacq.", "test": "Postemergence herbicidal evaluation (Example 147)", "settings": "rating scale 0-9, two to three weeks after treatment", "protocol": "as §3"}, "[18]": {"tested_on": "ABUTH, Velvetleaf, Abutilon theophrasti, Medic.", "test": "Postemergence herbicidal evaluation (Example 147)", "settings": "rating scale 0-9, two to three weeks after treatment", "protocol": "as §3"}, "[19]": {"tested_on": "GLXMA, Soybean, Glycine max, (L.) Merr.", "test": "Postemergence herbicidal evaluation (Example 147)", "settings": "rating scale 0-9, two to three weeks after treatment", "protocol": "as §3"}, "[20]": {"tested_on": "TRZAW, Winter wheat, Tritium Aestivum, L. (Winter)", "test": "Postemergence herbicidal evaluation (Example 147)", "settings": "rating scale 0-9, two to three weeks after treatment", "protocol": "as §3"}, "[21]": {"tested_on": "DIGSA, Crabgrass, (Hairy) L, Digitaria sanguinalis, (L)Scop", "test": "Postemergence herbicidal evaluation (Example 147)", "settings": "rating scale 0-9, two to three weeks after treatment", "protocol": "as §3"}, "[22]": {"tested_on": "ECHCG, Barnyardgrass, Echinochloa crusgalli, (L.)Beau", "test": "Postemergence herbicidal evaluation (Example 147)", "settings": "rating scale 0-9, two to three weeks after treatment", "protocol": "as §3"}, "[23]": {"tested_on": "CHEAL, Lambsquarters, Chenopodium album, L. Common", "test": "Postemergence herbicidal evaluation (Example 147)", "settings": "rating scale 0-9, two to three weeks after treatment", "protocol": "as §3"}}}
{"smiles": "COc1cccc(CN(C)S(=O)(=O)NC(=O)c2cc(-n3c(=O)cc(C(F)(F)F)n(C)c3=O)c(F)cc2Cl)c1", "note": "[Example 70]", "values": [{"measurement": "Preemergence herbicidal rating XANST", "setting": "[1]; rate 0.125 kg/ha", "value": 8.0}, {"measurement": "Preemergence herbicidal rating XANST", "setting": "[1]; rate 0.25 kg/ha", "value": 9.0}, {"measurement": "Preemergence herbicidal rating SETVI", "setting": "[2]; rate 0.125 kg/ha", "value": 3.0}, {"measurement": "Preemergence herbicidal rating SETVI", "setting": "[2]; rate 0.25 kg/ha", "value": 5.0}, {"measurement": "Preemergence herbicidal rating AMBEL", "setting": "[3]; rate 0.125 kg/ha", "value": 9.0}, {"measurement": "Preemergence herbicidal rating AMBEL", "setting": "[3]; rate 0.25 kg/ha", "value": 9.0}, {"measurement": "Preemergence herbicidal rating ZEAMX", "setting": "[4]; rate 0.125 kg/ha", "value": 0.0}, {"measurement": "Preemergence herbicidal rating ZEAMX", "setting": "[4]; rate 0.25 kg/ha", "value": 0.0}, {"measurement": "Preemergence herbicidal rating ALMOY", "setting": "[5]; rate 0.125 kg/ha", "value": 0.0}, {"measurement": "Preemergence herbicidal rating ALMOY", "setting": "[5]; rate 0.25 kg/ha", "value": 0.0}, {"measurement": "Preemergence herbicidal rating IPOHE", "setting": "[6]; rate 0.125 kg/ha", "value": 9.0}, {"measurement": "Preemergence herbicidal rating IPOHE", "setting": "[6]; rate 0.25 kg/ha", "value": 9.0}, {"measurement": "Preemergence herbicidal rating ABUTH", "setting": "[7]; rate 0.125 kg/ha", "value": 9.0}, {"measurement": "Preemergence herbicidal rating ABUTH", "setting": "[7]; rate 0.25 kg/ha", "value": 9.0}, {"measurement": "Preemergence herbicidal rating GLXMA", "setting": "[8]; rate 0.125 kg/ha", "value": 1.0}, {"measurement": "Preemergence herbicidal rating GLXMA", "setting": "[8]; rate 0.25 kg/ha", "value": 3.0}, {"measurement": "Preemergence herbicidal rating TRZAW", "setting": "[9]; rate 0.125 kg/ha", "value": 0.0}, {"measurement": "Preemergence herbicidal rating TRZAW", "setting": "[9]; rate 0.25 kg/ha", "value": 1.0}, {"measurement": "Preemergence herbicidal rating DIGSA", "setting": "[10]; rate 0.125 kg/ha", "value": 2.0}, {"measurement": "Preemergence herbicidal rating DIGSA", "setting": "[10]; rate 0.25 kg/ha", "value": 5.0}, {"measurement": "Preemergence herbicidal rating ECHCG", "setting": "[11]; rate 0.125 kg/ha", "value": 2.0}, {"measurement": "Preemergence herbicidal rating ECHCG", "setting": "[11]; rate 0.25 kg/ha", "value": 7.0}, {"measurement": "Preemergence herbicidal rating CHEAL", "setting": "[12]; rate 0.125 kg/ha", "value": 8.0}, {"measurement": "Preemergence herbicidal rating CHEAL", "setting": "[12]; rate 0.25 kg/ha", "value": 9.0}, {"measurement": "Postemergence herbicidal rating SETVI", "setting": "[13]; rate 0.016 kg/ha", "value": 4.0}, {"measurement": "Postemergence herbicidal rating SETVI", "setting": "[13]; rate 0.032 kg/ha", "value": 5.0}, {"measurement": "Postemergence herbicidal rating AMBEL", "setting": "[14]; rate 0.016 kg/ha", "value": 5.0}, {"measurement": "Postemergence herbicidal rating AMBEL", "setting": "[14]; rate 0.032 kg/ha", "value": 7.0}, {"measurement": "Postemergence herbicidal rating ZEAMX", "setting": "[15]; rate 0.016 kg/ha", "value": 7.0}, {"measurement": "Postemergence herbicidal rating ZEAMX", "setting": "[15]; rate 0.032 kg/ha", "value": 7.0}, {"measurement": "Postemergence herbicidal rating ALMOY", "setting": "[16]; rate 0.016 kg/ha", "value": 1.0}, {"measurement": "Postemergence herbicidal rating ALMOY", "setting": "[16]; rate 0.032 kg/ha", "value": 1.0}, {"measurement": "Postemergence herbicidal rating IPOHE", "setting": "[17]; rate 0.016 kg/ha", "value": 9.0}, {"measurement": "Postemergence herbicidal rating IPOHE", "setting": "[17]; rate 0.032 kg/ha", "value": 9.0}, {"measurement": "Postemergence herbicidal rating ABUTH", "setting": "[18]; rate 0.016 kg/ha", "value": 9.0}, {"measurement": "Postemergence herbicidal rating ABUTH", "setting": "[18]; rate 0.032 kg/ha", "value": 9.0}, {"measurement": "Postemergence herbicidal rating GLXMA", "setting": "[19]; rate 0.016 kg/ha", "value": 6.5}, {"measurement": "Postemergence herbicidal rating GLXMA", "setting": "[19]; rate 0.032 kg/ha", "value": 7.5}, {"measurement": "Postemergence herbicidal rating TRZAW", "setting": "[20]; rate 0.016 kg/ha", "value": 4.5}, {"measurement": "Postemergence herbicidal rating TRZAW", "setting": "[20]; rate 0.032 kg/ha", "value": 5.0}, {"measurement": "Postemergence herbicidal rating DIGSA", "setting": "[21]; rate 0.016 kg/ha", "value": 2.0}, {"measurement": "Postemergence herbicidal rating DIGSA", "setting": "[21]; rate 0.032 kg/ha", "value": 3.0}, {"measurement": "Postemergence herbicidal rating ECHCG", "setting": "[22]; rate 0.016 kg/ha", "value": 4.0}, {"measurement": "Postemergence herbicidal rating ECHCG", "setting": "[22]; rate 0.032 kg/ha", "value": 8.0}, {"measurement": "Postemergence herbicidal rating CHEAL", "setting": "[23]; rate 0.016 kg/ha", "value": 6.0}, {"measurement": "Postemergence herbicidal rating CHEAL", "setting": "[23]; rate 0.032 kg/ha", "value": 7.0}]}
